Source: patent US20220280679A1, “Prophylactic Gel Compositions and Use as Barriers to Bacterial and Viral Colonization” (Innovation Chemical and Enviromental Technologies, Inc., priority 2021, published 2022)
Read-outs that look alike come from different tables or passages of the source.

What was measured:
Assay type in all cases: cell-based
[1] = tested on: human bladder tissue explants; experiment: Preliminary histology score, ex-vivo human bladder tissue (HBT)
Text: (§1) Active compositions are compared against a commercial control (UT20 58-164-4), a non-irritative control (PBS, phosphate buffered saline), a mild irritant control (1% TX-100, Triton X-100 surfactant).
(§2) The histology reflects a combination of the limits of each tissue models in addition to the reaction to variously added agents. SDS is clearly toxic to the tissue models and the addition of TX100 to the porcine vaginal mucosa removed the ability to assess unambiguously the effect of LPS with a surface active agent such as TX100.

porcine nasal tissue = experiment: Histology scoring on porcine nasal mucosa
Protocol: A panel of controls for preliminary model development was assessed for biocompatibility properties on Porcine nasal tissue via MTT, and ELISA Assays.
In Table 16, histology scoring of NS A (166A) and NS B (166B) type compositions on porcine nasal mucosa. Sample 165B is a commercial control. It is of some interest that the treatments appear to result in a reduced response with or without the addition of LPS. The detergents SDS and TX100 produce a maximal response while the LPS produces a range of responses. […] The blinded participation of the Histology expert lends additional strength to the data.

tissue explants = experiment: MTT biocompatibility assay, relative viability of tissue explants
Protocol: Biocompatibility assays were performed by PerfectUs Biomed group (formerly Extherid) on the samples of IC-2B2 samples from Example 2, Table 2B.2
MTT assays returns relative viability of tissue through calorimetric analysis. Results are reported as percent viability compared to the non-irritative PBS control, which represents 100% viability for each of the four test conditions.
Because 100% viability for each trial is represented by the colorimetric average of the 3 explants treated with PBS. viability greater than 100% indicates UT20 formulations impart cytoprotective effects compared to the neutral PBS control.

porcine vaginal mucosa = experiment: Preliminary histology score, porcine tissue (PMM)
Text: as §1, §2

Row | Molecule | HBT Qualitative Score (histology) [1] | Ordinal score (histology) (porcine nasal tissue) | tissue viability (MTT), irritant controls (tissue explants) | PMM Qualitative Score (histology) (porcine vaginal mucosa) | histology observation, bladder sections [1] | Ordinal score (histology) (porcine nasal tissue; control agent alone) | tissue viability (MTT), irritant controls (tissue explants; all test conditions) | histology observation, porcine vaginal mucosa (porcine vaginal mucosa; LPS combined with TX100) | histology observation, bladder sections ([1]; with addition of LPS)
1 | CCCCCCCCCCCCOS(=O)(=O)[O-].[Na+] [SDS] | 4+ | 4 | decreases in tissue viability | 4+ | – | – | – | – | –
2 | Triton X-100 [TX100] | – | – | – | – | mild cell loss and submucosal edema | 3 | decreases in tissue viability | lost normal structure entirely | –
3 | lipopolysaccharide [LPS] | – | – | – | – | – | 1 | – | – | reactive damage to the bladder sections with a loss of cells on the surface of the section
